Experimental data published in publication PMC6383519 (Cancer immunology, immunotherapy : CII, 2013).
“Also recorded” adds a separate entry of the source. Where two headings read alike, the source gives them in different places.

Experiments:
[1] = system: HLA-A2 molecule on T2 cells; test: T2-cell binding; set-up: species or system human; conditions: for Actual binding: T2-A2 cells, peptide 12.5 μg/ml, overnight incubation, flow cytometry, mean fluorescence intensity; for T2-A2 binding (rank): ranking among 5 potential MUC1-C agonist epitopes
PBMCs of cancer patients = test: Establishment of peptide-specific T-cell lines; assay type: cell-based, human; conditions: PBMCs of vaccinated cancer patients, autologous DCs pulsed with 20 μg/ml peptide
[2] = system: tumor cells endogenously expressing the native antigen; test: Ranking of killing by peptide-specific CTL; assay type: cell-based, human; conditions: ranking among 5 potential MUC1-C agonist epitopes
[3] = system: MUC1-specific T-cell lines; test: IFN-γ production by peptide-specific T-cell lines; assay type: cell-based, human; conditions: ranking among 5 potential MUC1-C agonist epitopes
[4] = system: MUC1 peptide-specific CD8+ T cells; test: Tetramer staining; assay type: cell-based, human; conditions: Supplemental Fig. 3; for binding of T-cell line to corresponding tetramer: HLA-A3 tetramers; for binding of T-cell line to the control tetramer: negative control tetramer
[5] = system: C1RA3 cells pulsed with the corresponding peptide; test: Lysis of cells pulsed with the corresponding peptide; assay type: cell-based, human; conditions: T-cell lines from PBMCs of HLA-A3 patients vaccinated with PANVAC
[6] = system: MUC1-specific T-cell lines; assay type: cell-based, human
[7] = HLA-A24, T-cell line T-C7A stimulated 24h with B-cells pulsed with the peptide
[8] = HLA-A24, T-cell line T-C7 stimulated 24h with B-cells pulsed with the peptide

YLDTRPAPV [Peptide V2A]
Actual binding [1]: 647 MFI | generation of T-cell lines with the peptide (PBMCs of cancer patients): successfully generated

YLIALAVCQC [Peptide C2]
Actual binding [1]: 211 MFI

ALAIVYLIAL [Peptide C4]
generation of T-cell lines with the peptide (PBMCs of cancer patients): grew poorly

YLAIVYLIAL [Peptide C1A]
Level of killing by peptide-specific CTL (rank) [2]: 2 | Actual binding [1]: 245 MFI | T2-A2 binding (rank) [1]: 5 | Level of IFN-γ produced by peptide-specific CTL (rank) [3]: 3

ALFIVYLIAK [Peptide C4A]
binding of T-cell line to corresponding tetramer [4]: 20.2% | binding of T-cell line to the control tetramer [4]: < 0.04% | lysis of C1RA3 cells pulsed with the corresponding peptide [5]: seen | generation of T-cell lines with the peptide (PBMCs of cancer patients): could be derived

STDRSPYEK [Peptide C5]
generation of T-cell lines with the peptide (PBMCs of cancer patients): grew poorly

SLFRSPYEK [Peptide C5A]
binding of T-cell line to corresponding tetramer [4]: 16.2% | binding of T-cell line to the control tetramer [4]: < 0.04% | lysis of C1RA3 cells pulsed with the corresponding peptide [5]: seen | generation of T-cell lines with the peptide (PBMCs of cancer patients): could be derived

SYTNPAVAA [Peptide C7]
generation of T-cell lines with the peptide (PBMCs of cancer patients): grew poorly; also recorded: could be generated | GM-CSF [6, 7]: 215 pg/ml/2.5 × 10^5 T cells | IFN-γ [6, 7]: 680 pg/ml/2.5 × 10^5 T cells | IL-2 [6, 7]: <2.4 pg/ml/2.5 × 10^5 T cells | IL-6 [6, 7]: <2.4 pg/ml/2.5 × 10^5 T cells | IL-8 [6, 7]: 112 pg/ml/2.5 × 10^5 T cells | IL-10 [6, 7]: 92 pg/ml/2.5 × 10^5 T cells | TNFα [6, 7]: 30 pg/ml/2.5 × 10^5 T cells | GM-CSF [6, 8]: 237 pg/ml/2.5 × 10^5 T cells | IFN-γ [6, 8]: 750 pg/ml/2.5 × 10^5 T cells | IL-2 [6, 8]: <2.4 pg/ml/2.5 × 10^5 T cells | IL-6 [6, 8]: 6.4 pg/ml/2.5 × 10^5 T cells | IL-8 [6, 8]: 6.8 pg/ml/2.5 × 10^5 T cells | IL-10 [6, 8]: 25 pg/ml/2.5 × 10^5 T cells | TNFα [6, 8]: 21 pg/ml/2.5 × 10^5 T cells

STAPPAHGV [Peptide V1]
Actual binding [1]: 166 MFI | generation of T-cell lines with the peptide (PBMCs of cancer patients): could not be generated

SLSYTNPAV [Peptide C3]
Actual binding [1]: 326 MFI

YLSYTNPAV [Peptide C3A]
Level of killing by peptide-specific CTL (rank) [2]: 3 | Actual binding [1]: 342 MFI | T2-A2 binding (rank) [1]: 1 | Level of IFN-γ produced by peptide-specific CTL (rank) [3]: 2

APDTRPAPG [Peptide V2]
Actual binding [1]: 210 MFI | generation of T-cell lines with the peptide (PBMCs of cancer patients): could not be generated

KYHPMSEYAL [Peptide C6A]
generation of T-cell lines with the peptide (PBMCs of cancer patients): could be generated | IFN-γ ([6]; stimulation of the T-cell line generated with the C6A agonist peptide): 2,651 pg/ml/10^5 cells

YLIALAVCQV [Peptide C2A]
Level of killing by peptide-specific CTL (rank) [2]: 1 | Actual binding [1]: 299 MFI | T2-A2 binding (rank) [1]: 3 | Level of IFN-γ produced by peptide-specific CTL (rank) [3]: 1

YLAPPAHGV [Peptide V1A]
Actual binding [1]: 486 MFI | generation of T-cell lines with the peptide (PBMCs of cancer patients): successfully generated

YLLVLVCVLV [Peptide C9A]
Level of killing by peptide-specific CTL (rank) [2]: Negative | T2-A2 binding (rank) [1]: 4 | Level of IFN-γ produced by peptide-specific CTL (rank) [3]: Negative

ALAIVYLIAL [Peptide C1]
Actual binding [1]: 249 MFI

YLSDVSVSDV [Peptide C8A]
Level of killing by peptide-specific CTL (rank) [2]: Negative | T2-A2 binding (rank) [1]: 2 | Level of IFN-γ produced by peptide-specific CTL (rank) [3]: 4

KYTNPAVAL [Peptide C7A]
generation of T-cell lines with the peptide (PBMCs of cancer patients): could be generated | GM-CSF [6, 7]: 910 pg/ml/2.5 × 10^5 T cells | IFN-γ [6, 7]: 2,000 pg/ml/2.5 × 10^5 T cells | IL-2 [6, 7]: <2.4 pg/ml/2.5 × 10^5 T cells | IL-6 [6, 7]: 40 pg/ml/2.5 × 10^5 T cells | IL-8 [6, 7]: 360 pg/ml/2.5 × 10^5 T cells | IL-10 [6, 7]: 375 pg/ml/2.5 × 10^5 T cells | TNFα [6, 7]: 70 pg/ml/2.5 × 10^5 T cells | GM-CSF [6, 8]: 300 pg/ml/2.5 × 10^5 T cells | IFN-γ [6, 8]: 1,279 pg/ml/2.5 × 10^5 T cells | IL-2 [6, 8]: <2.4 pg/ml/2.5 × 10^5 T cells | IL-6 [6, 8]: 7.7 pg/ml/2.5 × 10^5 T cells | IL-8 [6, 8]: 7.3 pg/ml/2.5 × 10^5 T cells | IL-10 [6, 8]: 45 pg/ml/2.5 × 10^5 T cells | TNFα [6, 8]: 30 pg/ml/2.5 × 10^5 T cells
